In series [1] the target is T1, Oxysterols receptor LXR-alpha (Homo sapiens) (UniProt Q13133).
T1 sequence (whole entry): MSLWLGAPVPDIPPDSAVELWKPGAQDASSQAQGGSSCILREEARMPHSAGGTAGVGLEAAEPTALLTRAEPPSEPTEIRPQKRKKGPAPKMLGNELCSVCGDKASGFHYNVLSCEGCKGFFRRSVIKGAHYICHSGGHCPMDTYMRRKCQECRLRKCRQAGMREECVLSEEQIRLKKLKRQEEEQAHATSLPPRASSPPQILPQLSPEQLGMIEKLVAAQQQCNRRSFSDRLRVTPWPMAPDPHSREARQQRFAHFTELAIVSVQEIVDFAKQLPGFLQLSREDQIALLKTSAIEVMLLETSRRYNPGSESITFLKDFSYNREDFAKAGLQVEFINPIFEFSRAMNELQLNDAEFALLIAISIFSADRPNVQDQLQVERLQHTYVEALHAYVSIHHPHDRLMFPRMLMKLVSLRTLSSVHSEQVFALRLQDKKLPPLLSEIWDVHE
Kind of series: Antagonist activity at GAL4-fused human LXRalpha expressed in HEK293T cells assessed as inhibition of T0901317-induced basal transcriptional activity up to 10 uM after 20 hrs by dual-glo luciferase reporter gene assay. It counts as cell-based. Conditions: HEK-293T. Background: Reporter assays use an easily measured gene product as a stand-in for the process of interest.

In a further series the test system is PBMC. Kind of series: Antiinflammatory activity in human PBMC assessed as inhibition of IL-17 production after 48 hrs by Sandwich ELISA. It counts as functional, cell-based. (An ELISA detects its analyte on a solid surface through an enzyme-linked reagent.)
In the next series the target is T2, Bile acid receptor (Homo sapiens, UniProt Q96RI1).
T2 sequence (Q96RI1 whole entry): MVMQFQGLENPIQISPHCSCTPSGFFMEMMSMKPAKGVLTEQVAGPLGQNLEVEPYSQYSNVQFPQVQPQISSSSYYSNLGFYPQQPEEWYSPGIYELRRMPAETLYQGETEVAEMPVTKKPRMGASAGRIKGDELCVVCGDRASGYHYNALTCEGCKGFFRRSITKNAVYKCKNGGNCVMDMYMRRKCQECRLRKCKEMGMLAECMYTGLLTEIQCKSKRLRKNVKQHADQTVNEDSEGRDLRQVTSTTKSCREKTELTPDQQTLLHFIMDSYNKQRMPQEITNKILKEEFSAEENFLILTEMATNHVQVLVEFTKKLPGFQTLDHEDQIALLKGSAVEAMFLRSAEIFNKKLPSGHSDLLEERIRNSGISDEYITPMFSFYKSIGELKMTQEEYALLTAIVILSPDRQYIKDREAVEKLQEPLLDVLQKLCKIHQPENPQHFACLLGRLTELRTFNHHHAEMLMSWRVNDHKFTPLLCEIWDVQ
Kind of series: Agonist activity at GAL4-fused human FXR expressed in HEK293T cells assessed as activation of basal transcriptional activity after 20 hrs by dual-glo luciferase reporter gene assay. It counts as cell-based, HEK-293T.

For series [2], the target named is T3, Nuclear receptor ROR-gamma (Homo sapiens, UniProt P51449).
T3 sequence (P51449 whole entry): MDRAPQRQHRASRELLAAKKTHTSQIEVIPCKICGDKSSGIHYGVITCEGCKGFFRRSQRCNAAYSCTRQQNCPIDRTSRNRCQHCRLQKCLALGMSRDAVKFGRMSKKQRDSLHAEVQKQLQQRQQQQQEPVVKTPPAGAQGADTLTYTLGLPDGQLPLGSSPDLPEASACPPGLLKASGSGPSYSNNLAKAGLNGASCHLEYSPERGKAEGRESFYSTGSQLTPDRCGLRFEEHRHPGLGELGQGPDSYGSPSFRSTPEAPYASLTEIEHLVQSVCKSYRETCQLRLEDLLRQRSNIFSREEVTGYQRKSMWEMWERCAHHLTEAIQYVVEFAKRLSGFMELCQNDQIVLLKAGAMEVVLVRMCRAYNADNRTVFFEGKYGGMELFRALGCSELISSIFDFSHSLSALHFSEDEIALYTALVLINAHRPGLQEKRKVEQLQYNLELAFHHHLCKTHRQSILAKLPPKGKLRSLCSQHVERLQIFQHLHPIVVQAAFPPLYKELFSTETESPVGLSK
Briefly: Inverse agonist activity at N-terminal 6xHis-tagged human RORc ligand binding domain (241 to 486) expressed in bacterial expression system assessed as inhibition of SRC1 co-activator peptide recruitment after 3 hrs by TR-FRET analysis. It counts as functional. For orientation: Time-resolved FRET reads energy transfer from a long-lived donor to a nearby acceptor.

Series [3] has as its target T4, Nuclear receptor ROR-beta (Homo sapiens, UniProt Q92753).
T4 sequence (Q92753 whole entry): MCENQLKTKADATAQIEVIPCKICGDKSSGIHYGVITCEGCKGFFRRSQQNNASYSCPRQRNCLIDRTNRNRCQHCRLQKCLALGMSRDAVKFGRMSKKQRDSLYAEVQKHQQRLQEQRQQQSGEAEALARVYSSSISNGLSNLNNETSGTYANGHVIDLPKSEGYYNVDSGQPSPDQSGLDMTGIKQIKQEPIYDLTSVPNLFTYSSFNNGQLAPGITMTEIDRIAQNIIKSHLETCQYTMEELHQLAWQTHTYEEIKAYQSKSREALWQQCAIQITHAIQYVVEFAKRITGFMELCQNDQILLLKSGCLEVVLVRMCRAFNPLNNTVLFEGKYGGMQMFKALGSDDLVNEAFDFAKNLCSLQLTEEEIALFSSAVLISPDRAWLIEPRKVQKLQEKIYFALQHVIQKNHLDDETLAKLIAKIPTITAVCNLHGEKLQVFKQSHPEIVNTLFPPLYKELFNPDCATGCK
Kind of series: Inverse agonist activity at GAL4-fused human RORb expressed in HEK293T cells assessed as suppression of basal transcriptional activity after 20 hrs by dual-glo luciferase reporter gene assay. It counts as cell-based, HEK-293T.

The target in series [4] is T5, Nuclear receptor subfamily 1 group I member 2 (Homo sapiens, UniProt O75469).
T5 sequence (O75469 whole entry): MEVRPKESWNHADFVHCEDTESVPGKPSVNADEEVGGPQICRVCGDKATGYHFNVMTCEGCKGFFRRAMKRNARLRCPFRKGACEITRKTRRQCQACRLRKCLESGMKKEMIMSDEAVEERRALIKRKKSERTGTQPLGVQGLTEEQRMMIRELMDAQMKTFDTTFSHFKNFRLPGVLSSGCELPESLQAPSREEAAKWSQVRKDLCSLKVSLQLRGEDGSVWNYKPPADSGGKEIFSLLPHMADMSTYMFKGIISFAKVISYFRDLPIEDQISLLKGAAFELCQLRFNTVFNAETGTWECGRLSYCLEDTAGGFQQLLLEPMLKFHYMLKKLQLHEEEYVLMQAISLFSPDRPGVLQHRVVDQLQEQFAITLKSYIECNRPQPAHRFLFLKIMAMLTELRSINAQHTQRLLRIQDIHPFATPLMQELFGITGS
Briefly: Antagonist activity at GAL4-fused human PXR expressed in HEK293T cells assessed as inhibition of T0901317-induced basal transcriptional activity up to 10 uM after 20 hrs by dual-glo luciferase reporter gene assay. It counts as cell-based. Conditions: hek-293t.

pEC50: −log10 of the molar value. The source made the active and inactive calls. The rule behind the calls is not given here.

With `O=C(O)c1ccc(-c2nc(C(=O)c3c(Cl)cccc3C(F)(F)F)n3ccccc23)c(F)c1`, the inhibition result in series [1] is “inactive”. The negative logarithm of the EC50 (pEC50) in the series with PBMC is 6.92; at Bile acid receptor, under 5.00; in series [2], 8.05; in series [3], under 5.00. Besides, the “inhibition (INH)” value in series [4] is “Not Active”.

`O=C(O)c1ccc(-c2nc(C(=O)c3c(Cl)cccc3C3CC3)n3cccnc23)cc1O`: the inhibition entry in series [1] is “inactive”. In addition, the pEC50 with PBMC was 7.52; at Bile acid receptor, under 5.00; in series [2] it was 8.70; in series [3] it was under 5.00. For the same compound, the “inhibition (INH)” value in series [4] is listed as “Not Active”.

Consider `O=C(O)c1ccc(-c2nc(C(=O)c3c(Cl)cccc3C(F)(F)F)n3ccccc23)cc1`, for which the inhibition result in series [1] is “inactive”. In addition, the negative-log EC50 (pEC50) was 6.64 in the series on PBMC, under 5.00 at Bile acid receptor and under 5.00 in series [3]. In addition, in series [4], the “inhibition (INH)” value is on record as “Not Active”.

For `O=C(O)c1ccc(-c2nc(C(=O)c3c(Cl)cccc3C(F)(F)F)n3c2CCCC3)c(F)c1`, in series [1], the inhibition entry is “inactive”. Further, the pEC50 in the series on PBMC was 6.64; at Bile acid receptor, under 5.00; in series [2] it was 7.49; in series [3], under 5.00. For the same compound, the “inhibition (INH)” value in series [4] was “Not Active”.

Consider `O=C(O)c1ccc(-c2nc(C(=O)c3c(Cl)cccc3C(F)(F)F)n3ccccc23)cc1O`, for which the inhibition entry in series [1] is “inactive”. In addition, the negative-log EC50 (pEC50) in the series with PBMC was 7.77; on Bile acid receptor it was under 5.00; in series [2], 8.70; in series [3], under 5.00. Besides, the “inhibition (INH)” value in series [4] is recorded as “Not Active”.

As to `O=C(O)c1ccc(-c2nc(C(=O)c3c(Cl)cccc3C3CC3)n3c2CCCC3)c(F)c1`, the inhibition result in series [1] was “inactive”. For the same compound, the pEC50 in the series on PBMC was 6.52; on Bile acid receptor, under 5.00; in series [2] it was 7.57; in series [3], under 5.00. Also, the “inhibition (INH)” value in series [4] is “Not Active”.

One may read the pEC50 as the EC50 on a negative log10 scale, so that one unit is a factor of ten.
